Data published in patent US9669003B2, “Use of flavone and flavanone derivatives in preparation of sedative and hypnotic drugs” (priority 2012, dated 2017).
Marks after values point to notes of the source that are not given here.

Tested on: Kunming mice
Assay: Influence on autonomic activity of normal mice (ZIL-2 mice autonomic activity meter, counts within 10 min)
Assay type: in vivo
Conditions: intragastric, 25 mg/kg, 1 h after administration, x ± s, n = 10
From the text: (§1) 1.1 Animals for experiments: Kunming mice, weighting 18.9˜22.2 g for females, and 20.2˜23.0 g for males, licensed under SCXK-(Ji) 2007-0003, and provided by The experimental animal centre, Jilin University.
(§2) 1.2 Chemicals for experiments: The flavone derivatives provided in Examples 1-41 and the flavanone derivatives provided in Examples 42-71 are all formulated with 0.5% sodium carboxymethyl cellulose as solutions with required concentrations.
(§3) 1.3 Grouping of animals: 6420 animals are employed in the entire experiments and 2140 of the animals are randomly divided into 214 groups by gender, and the […] include: control group, low dosage group for each experimental drugs (25 mg/kg), medium dosage group for each experimental drugs (50 mg/kg), and high dosage group for each experimental drugs (100 mg/kg). Each group has 10 animals and either female or male constitutes half of the group. The groups are used in behavior observation and voluntary action observation. The other 4280 animals are randomly divided into 214 groups by gender respectively (the grouping way is the same with that described above). Each group has 20 animals and either female or male constitutes half of the group. In each group, 10 animals are used in hypnosis experimentations with pentobarbital sodium doses below the threshold, and the other 10 animals are used hypnosis experimentations with pentobarbital sodium doses at the threshold.
1.4 Experimental instrument and agents: ZIL-2 mice autonomic activity meter, production of Institute of Materia Medica of Chinese Academy of Medical Sciences; pentobarbital sodium, Lot: 100808, 25 g/bottle, Beijing Chemical Reagent Company equipment imported from Germany.
1.5.2 Influence on Autonomic Activity of Normal Mice
After observing the general behavior, in 1 h, 2 h and 24 h after drug administration, respectively, ZIL-2 mice autonomic activity meter is put respectively. Number of autonomic activities of each group of mice is measured within 10 min. Results among groups are compared.
(§4) Number of autonomic activities is detected by leneve Test for homogeneity of variance. If the homogeneity of variance is good (P>0.05), statistical analysis is performed with ANOVA. If ANOVA have statistical significance (P≦0.05), Dunnett's test for multiple comparisons analysis is performed. Number of animals of sleeping mice is applied of ANOVA. Incidence rate of animal asleep is applied of χ2 test. Sleep latency and sleep duration are recorded in min, averaged by group, represented by standard deviation, and undergo statistical analysis using ANOVA.

Row | SMILES | Times of activities in 1 h after drug administration/10 min
1 | COc1ccc(C2CC(=O)c3c(OC)c(OC)c(OC)c(OC)c3O2)cc1OC (stereo not drawn) [Example 48, 5,6,7,8,3′,4′-hexamethoxyl-flavanone] | 225.6 ± 43.2 /10 min

Same assay, conditions: intragastric, 25 mg/kg, 2 h after administration, x ± s, n = 10

Row | SMILES | Times of activities in 2 h after drug administration/10 min
2 | COc1ccc(C2CC(=O)c3c(OC)c(OC)c(OC)c(OC)c3O2)cc1OC (stereo not drawn) [Example 48, 5,6,7,8,3′,4′-hexamethoxyl-flavanone] | 229.4 ± 53.7 /10 min

Same assay, conditions: intragastric, 25 mg/kg, 24 h after administration, x ± s, n = 10

Row | SMILES | Times of activities in 24 h after drug administration/10 min
3 | COc1ccc(C2CC(=O)c3c(OC)c(OC)c(OC)c(OC)c3O2)cc1OC (stereo not drawn) [Example 48, 5,6,7,8,3′,4′-hexamethoxyl-flavanone] | 308.5 ± 75.2 /10 min

Same assay, conditions: intragastric, 50 mg/kg, 1 h after administration, x ± s, n = 10

Row | SMILES | Times of activities in 1 h after drug administration/10 min
4 | COc1ccc(C2CC(=O)c3c(OC)c(OC)c(OC)c(OC)c3O2)cc1OC (stereo not drawn) [Example 48, 5,6,7,8,3′,4′-hexamethoxyl-flavanone] | 145.1 ± 41.6 /10 min

Same assay, conditions: intragastric, 50 mg/kg, 2 h after administration, x ± s, n = 10

Row | SMILES | Times of activities in 2 h after drug administration/10 min
5 | COc1ccc(C2CC(=O)c3c(OC)c(OC)c(OC)c(OC)c3O2)cc1OC (stereo not drawn) [Example 48, 5,6,7,8,3′,4′-hexamethoxyl-flavanone] | 140.6 ± 40.8 /10 min

Same assay, conditions: intragastric, 50 mg/kg, 24 h after administration, x ± s, n = 10

Row | SMILES | Times of activities in 24 h after drug administration/10 min
6 | COc1ccc(C2CC(=O)c3c(OC)c(OC)c(OC)c(OC)c3O2)cc1OC (stereo not drawn) [Example 48, 5,6,7,8,3′,4′-hexamethoxyl-flavanone] | 317.4 ± 95.6 /10 min

Same assay, conditions: intragastric, 100 mg/kg, 1 h after administration, x ± s, n = 10

Row | SMILES | Times of activities in 1 h after drug administration/10 min
7 | COc1ccc(C2CC(=O)c3c(OC)c(OC)c(OC)c(OC)c3O2)cc1OC (stereo not drawn) [Example 48, 5,6,7,8,3′,4′-hexamethoxyl-flavanone] | 120.3 ± 48.3 /10 min

Same assay, conditions: intragastric, 100 mg/kg, 2 h after administration, x ± s, n = 10

Row | SMILES | Times of activities in 2 h after drug administration/10 min
8 | COc1ccc(C2CC(=O)c3c(OC)c(OC)c(OC)c(OC)c3O2)cc1OC (stereo not drawn) [Example 48, 5,6,7,8,3′,4′-hexamethoxyl-flavanone] | 118.5 ± 42.6 /10 min

Same assay, conditions: intragastric, 100 mg/kg, 24 h after administration, x ± s, n = 10

Row | SMILES | Times of activities in 24 h after drug administration/10 min
9 | COc1ccc(C2CC(=O)c3c(OC)c(OC)c(OC)c(OC)c3O2)cc1OC (stereo not drawn) [Example 48, 5,6,7,8,3′,4′-hexamethoxyl-flavanone] | 302.1 ± 89.0 /10 min

Tested on: Kunming mice
Assay: Influence on hypnosis effect with pentobarbital sodium doses below the threshold (25 mg/kg i.p.)
Assay type: in vivo
Conditions: test drug 25 mg/kg intragastric single dose, pentobarbital sodium 25 mg/kg i.p. 60 min later, sleep observed in 30 min, n = 10
From the text: as §1, §2, §3
1.5.3 Influence on Hypnosis Effect with Mice Pentobarbital Sodium Doses Below the Threshold
(§5) The drug is intragastric administered in mice for single time, 2 animals of each group are given drug per round with the dosing interval of 40 min (±5 min). According to the administration round, in 60 min (±5 min) of each round after the drug administration, the animals were intraperitoneally injected 0.3% sodium pentobarbital 25 mg/kg, respectively. Sleep condition of the animals were observed within 30 min (under sleep determination standard of loss of righting reflex more than 1 min). After animals undergo loss of righting reflex, number of the animals is recorded, to calculate sleep percentage.
as §4

Row | SMILES | Number of sleeping animals | rate of sleeping (%)
10 | COc1ccc(C2CC(=O)c3c(OC)c(OC)c(OC)c(OC)c3O2)cc1OC (stereo not drawn) [Example 48, 5,6,7,8,3′,4′-hexamethoxyl-flavanone] | 5 | 50** %

Same assay, conditions: test drug 50 mg/kg intragastric single dose, pentobarbital sodium 25 mg/kg i.p. 60 min later, sleep observed in 30 min, n = 10

Row | SMILES | Number of sleeping animals | rate of sleeping (%)
11 | COc1ccc(C2CC(=O)c3c(OC)c(OC)c(OC)c(OC)c3O2)cc1OC (stereo not drawn) [Example 48, 5,6,7,8,3′,4′-hexamethoxyl-flavanone] | 6 | 60** %

Same assay, conditions: test drug 100 mg/kg intragastric single dose, pentobarbital sodium 25 mg/kg i.p. 60 min later, sleep observed in 30 min, n = 10

Row | SMILES | Number of sleeping animals | rate of sleeping (%)
12 | COc1ccc(C2CC(=O)c3c(OC)c(OC)c(OC)c(OC)c3O2)cc1OC (stereo not drawn) [Example 48, 5,6,7,8,3′,4′-hexamethoxyl-flavanone] | 8 | 80*** %

Tested on: Kunming mice
Assay: Influence on hypnosis effect with pentobarbital sodium doses at the threshold (50 mg/kg i.p.)
Assay type: in vivo
Conditions: 25 mg/kg intragastric single dose, pentobarbital sodium 50 mg/kg i.p. 60 min later, x ± s, n = 10
From the text: as §1, §2, §3
1.5.4 Influence on Hypnosis Effect with Mice Pentobarbital Sodium Doses at the Threshold
as §5, with “50” for “25”, “Time to fall asleep (sleep latency) and sleep duration” for “Sleep condition”, “recorded” for “observed”, “under” for “30 min (under”, “min.” for “min). After animals undergo loss of righting reflex, number of the animals is recorded, to calculate sleep percentage.”
as §4

Row | SMILES | duration of sleep [min] | time to sleep [min]
13 | COc1ccc(C2CC(=O)c3c(OC)c(OC)c(OC)c(OC)c3O2)cc1OC (stereo not drawn) [Example 48, 5,6,7,8,3′,4′-hexamethoxyl-flavanone] | 50.55 ± 20.76 | 3.40 ± 1.25

Same assay, conditions: 50 mg/kg intragastric single dose, pentobarbital sodium 50 mg/kg i.p. 60 min later, x ± s, n = 10

Row | SMILES | duration of sleep [min] | time to sleep [min]
14 | COc1ccc(C2CC(=O)c3c(OC)c(OC)c(OC)c(OC)c3O2)cc1OC (stereo not drawn) [Example 48, 5,6,7,8,3′,4′-hexamethoxyl-flavanone] | 67.54 ± 21.07 | 3.19 ± 1.21

Same assay, conditions: 100 mg/kg intragastric single dose, pentobarbital sodium 50 mg/kg i.p. 60 min later, x ± s, n = 10

Row | SMILES | duration of sleep [min] | time to sleep [min]
15 | COc1ccc(C2CC(=O)c3c(OC)c(OC)c(OC)c(OC)c3O2)cc1OC (stereo not drawn) [Example 48, 5,6,7,8,3′,4′-hexamethoxyl-flavanone] | 87.51 ± 24.93 | 2.05 ± 1.80
